Experiments:
[1] = target: T1, Type-1 angiotensin II receptor (Oryctolagus cuniculus, UniProt P34976); assay: In vitro binding affinity towards Angiotensin II type 1-AT1 receptor determined as its ability to displace 125I-Sarl,Ile8-AII from the receptor expressed in rabbit aorta membrane.; assay type: cell membranes
T1 sequence (P34976 whole entry): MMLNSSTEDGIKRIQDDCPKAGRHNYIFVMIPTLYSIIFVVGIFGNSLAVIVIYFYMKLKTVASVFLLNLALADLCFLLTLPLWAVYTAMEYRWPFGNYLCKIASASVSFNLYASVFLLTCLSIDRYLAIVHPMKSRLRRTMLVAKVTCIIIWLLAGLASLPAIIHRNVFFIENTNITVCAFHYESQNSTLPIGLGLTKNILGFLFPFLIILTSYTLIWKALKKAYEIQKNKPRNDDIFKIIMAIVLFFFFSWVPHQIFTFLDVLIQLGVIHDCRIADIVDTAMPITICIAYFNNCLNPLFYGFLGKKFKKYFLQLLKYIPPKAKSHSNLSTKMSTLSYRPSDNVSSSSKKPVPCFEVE

[2] = target: T2, Type-2 angiotensin II receptor (Rattus norvegicus, UniProt P35351); assay: In vitro binding affinity towards Angiotensin II receptor, type 2 determined as its ability to displace 125I-Sarl,Ile8-AII from the receptor expressed in rat midbrain membrane.; assay type: cell membranes
T2 sequence (P35351 whole entry): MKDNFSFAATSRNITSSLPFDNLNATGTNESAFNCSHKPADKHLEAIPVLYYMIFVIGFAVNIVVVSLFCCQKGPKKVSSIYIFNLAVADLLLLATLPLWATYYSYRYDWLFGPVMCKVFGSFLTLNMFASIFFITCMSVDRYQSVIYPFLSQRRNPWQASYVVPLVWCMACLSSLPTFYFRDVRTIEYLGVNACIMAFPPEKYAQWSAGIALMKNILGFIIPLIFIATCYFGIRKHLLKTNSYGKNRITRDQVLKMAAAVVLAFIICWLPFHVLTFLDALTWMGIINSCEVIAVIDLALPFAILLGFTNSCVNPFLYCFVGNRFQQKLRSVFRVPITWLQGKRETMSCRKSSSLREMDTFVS

Rattus norvegicus = assay: In vivo potency for the inhibition of pressor response in normotensive rats (i.v.); assay type: functional

Structure (SMILES) | IC50 [1] [nM] | IC50 [2] [nM] | Activity (Rattus norvegicus) [mg/kg]
CCCc1nc2c(C)ccnc2n1Cc1ccc(-c2ccccc2-c2nn[nH]n2)cc1 | 1 | – | –
CCCc1nc2c(C)ccnc2n1Cc1ccc(-c2cccnc2-c2nn[nH]n2)cc1 | 60 | > 20000 | –
CCc1nc2c(C)cc(C)nc2n1Cc1ccc(-c2ccccc2-c2nnn[nH]2)cc1 [L-158809] | – | > 20000 | –

The next lines start with results.

IC50 [1] [nM] | IC50 [2] [nM] | Structure (SMILES) | Activity (Rattus norvegicus) [mg/kg]
– | > 20000 | CCCc1nc2c(C)ccnc2n1Cc1ccc(-c2ncccc2-c2nn[nH]n2)cc1 | –
4 | > 20000 | CCCc1nc2c(C)ccnc2n1Cc1ccc(-c2ccncc2-c2nn[nH]n2)cc1 | 0.1

Source: ChEMBL document CHEMBL1126535, “Angiotensin II receptor antagonists containing a phenylpyridine element” (Bioorg Med Chem Lett, 1993)
